Values after ≈ are worked out from the molar mass of the structure shown. Like-named read-outs stand apart in the source and are kept apart here. Marks after values point to notes of the source that are not given here. Starred links: 1 amine or outer side, 2 acyl side, 3 side chain; linkers in the order of their positions; H or OH if unused. Non-standard residues stand in square brackets, D forms with d. Residues, ends and D or L forms follow the SMILES beside them. Groups on a side chain read outwards from the residue. *: point of attachment. C18 diacid = O=C(O)CCCCCCCCCCCCCCCCC(=O)*; γGlu = O=C(O)[C@H](CCC(=O)[*:2])N[*:1]; AEEA = NCCOCCOCC(=O)O; Aib = CC(C)(N)C(=O)O
Assays:
hGLP-1-R [1] = target: T1, hGLP-1-R (Homo sapiens, UniProt P43220); test: hGLP-1R Binding Assay (SPA radioligand competition, 293HEK membranes); set-up: expressed in transfected cells; host or cells: 293HEK, stably transfected with plasmid phD, Hygromycin-selected; crude plasma membranes; conditions: read-out: Ki, nM ± SEM at the hGLP-1-R
T1 sequence (P43220 24-463): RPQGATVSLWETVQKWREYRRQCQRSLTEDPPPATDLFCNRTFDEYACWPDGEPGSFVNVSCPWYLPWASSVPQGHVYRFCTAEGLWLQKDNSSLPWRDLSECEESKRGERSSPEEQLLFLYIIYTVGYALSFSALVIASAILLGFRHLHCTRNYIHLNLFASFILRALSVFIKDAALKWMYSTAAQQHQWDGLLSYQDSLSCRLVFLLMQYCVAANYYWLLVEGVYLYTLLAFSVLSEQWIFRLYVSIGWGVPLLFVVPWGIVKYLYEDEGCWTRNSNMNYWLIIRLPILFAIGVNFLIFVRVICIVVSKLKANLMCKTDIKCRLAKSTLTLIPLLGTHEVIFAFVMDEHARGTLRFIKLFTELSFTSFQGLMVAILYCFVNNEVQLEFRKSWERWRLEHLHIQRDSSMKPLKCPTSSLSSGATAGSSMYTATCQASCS

[2] = Solubility (RP-HPLC and HPLC-SEC, 1 week at 4° C.); format: physicochemical; conditions: for HMW species formation by SEC-HPLC: 1 week at 4° C.; for visible precipitation or phase separation: after 1 week storage at 4° C.
Procedure: Solubility of compounds of the present invention is measured in an Agilent 1100 HPLC, an Agilent 1200 HPLC and a Nanodrop 2000. The following HPLC columns are used:
(a) RP-HPLC: Waters Symmetry Shield C18, 3.6 um, 4.6×100 mm
(b) HPLC-SEC: Tosoh Biosciences, TSK2000SWXL […]
All peptide concentrations are made at 10 mg/mL in the following:
(a) 10 mM Tris pH 8.0+3 mg/mL m-cresol
(b) 10 mM Tris pH 8.0+3 mg/mL m-cresol+150 mM NaCl
(c) 10 mM Tris pH 8.0+3 mg/mL m-cresol+0.02% Tween-20
5 mL of 10 mg/mL peptide dissolved in 10 mM Tris at pH 8.0 is concentrated to approximately 20 mg/mL using Amicon-ultra 3 kDa MWCO devices. The solution is filtered using Millivex 0.22 μM filters (PVDF membrane) and the final concentration is measured by the NanoDrop spectrometer. This stock solution is used to formulate to the final conditions stated above using 3× m-cresol, 10× NaCl, and 100× Tween-20 stock solutions. A 10 mg/mL PBS solution is also prepared by dissolving directly at 5 mg/mL and concentrating using Amicon-ultra 3 kDa MWCO devices.
Each solution is placed in a refrigerator at 4° C. for 1 week, with analysis by RP-HPLC to assess concentration and HPLC-SEC to assess HMW species formation. Analyses completed at T-0 week and T-1 week.
The solubility of Compounds 1-4 was measured essentially as described in this assay.

DIO mice (C57BL/6) [3] = test: Acute treatment in DIO mice (PCSK9, FGF-21, cholesterol); format: in vivo, mouse; conditions: 30 nmol/kg sc, 16 hours post dose
Procedure: In order to investigate metabolic pathways involved with the treatment of compounds of the present invention independent of weight loss, compounds are tested in DIO mice (C57BL/6) acutely. The mice used are three to four months old on a high fat diet for at least 4 weeks. Animals are individually housed in a temperature-controlled (24° C.) facility with a 12 hour light/dark cycle (lights on 6:00), and free access to food and water. Vehicle or testing compounds were administered to mice by subcutaneous injection at 16:00 the day before the study day. Animals were sacrificed 16 hours later to collect blood via cardia puncture. Statistics are analyzed using ANOVA with Dunnett's comparison for JMP-6. Significance is denoted at p≤0.05 vs vehicle.
Food intake was decreased to a similar level in all treatment groups, which may indicate that changes in cholesterol, PCSK9 and FGF-21 are food-intake independent.

DIO mice (C57BL/6) [4] = test: Glycemic control in DIO mice; format: in vivo, mouse; conditions: for 44 hours Glucose AUC (% of Vehicle): OGTT 44 hours post-injection; for 44 hours Glucose AUC (% of Vehicle) / 78 hours Glucose AUC (% of Vehicle): 25 nmol/kg sc; for 78 hours Glucose AUC (% of Vehicle): OGTT 78 hours post-injection; for glucose excursions post an oral glucose challenge: OGTTs at 44 and 78 hours post injection, 25 nmol/kg; for Blood glucose (mg/dL) post-injection, Mean: male DIO mice, 25 nmol/kg sc once
Procedure: Five to six months old male DIO mice (C57BL/6) from Taconic Biosciences are used in this study. Animals are individually housed in a temperature-controlled (24° C.) facility with a 12 hour light/dark cycle (lights on 6:00), and free access to food and water. After two weeks acclimation to the facility, the mice are randomized to treatment groups (n=7/group) based on their body weight and blood glucose. Mice are injected subcutaneously once with vehicle or compounds (25 nmol/kg). Blood glucose is monitored 2 and 8 hours post-injection and then once a day at 08:00 for 4 days. OGTTs are performed at 44 and 78 hours post the peptide injection. Statistics are analyzed using ANOVA with Dunnett's comparison by JMP 6. Significance is denoted at p≤0.05 vs vehicle.

DIO mice (C57BL/6) [5] = test: Chronic treatment in DIO mice (body weight, fat, food intake); format: in vivo, mouse
Summary of the method: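 C57BL/6 DIO mice aged 5–6 months, individually housed and randomized (N=7/group) on body weight and NMR fat mass, received SC injections on Days 1, 4, 7, 10 and 13. Body weight and food intake were measured before each injection, with fat mass re-measured by NMR at study end. Percent body-weight change was tested by ANOVA/Dunnett vs vehicle (p≤0.05).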

Human Gcg-R = target: T2, Human Gcg-R (Homo sapiens, UniProt P47871); test: Functional hGcg-R assay (cAMP HTRF, HEK-293 clonal cell line); format: cell-based; conditions: for EC50: cAMP, 60 minute incubation, 0.25% FBS, 0.05% BSA, geometric mean, read-out: Human Gcg-R EC50, nM ± SEM, (n)
T2 construct: expressed in transfected cells; host or cells: HEK-293 clonal cell line over-expressing the receptor
T2 sequence (P47871 26-477): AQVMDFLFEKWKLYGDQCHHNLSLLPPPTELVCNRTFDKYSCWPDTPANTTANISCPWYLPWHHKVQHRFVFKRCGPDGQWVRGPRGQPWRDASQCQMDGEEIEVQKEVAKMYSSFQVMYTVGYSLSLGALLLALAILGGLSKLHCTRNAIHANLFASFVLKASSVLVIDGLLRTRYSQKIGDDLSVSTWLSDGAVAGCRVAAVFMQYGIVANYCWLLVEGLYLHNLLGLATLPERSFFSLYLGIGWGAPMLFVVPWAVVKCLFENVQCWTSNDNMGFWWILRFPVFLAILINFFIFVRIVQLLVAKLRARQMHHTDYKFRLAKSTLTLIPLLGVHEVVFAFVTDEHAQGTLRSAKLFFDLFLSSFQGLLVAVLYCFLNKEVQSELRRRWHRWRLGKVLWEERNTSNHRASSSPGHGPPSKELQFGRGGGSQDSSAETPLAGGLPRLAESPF
Procedure: (§1) After a 60 minute incubation at room temperature, the resulting increase in intracellular cAMP (adenosine 3′,5′-cyclic monophosphate) is quantitatively determined using the CisBio cAMP Dynamic 2 HTRF Assay Kit (62AM4PEJ). cAMP levels within the cell are detected by adding the cAMP-d2 conjugate in cell lysis buffer (20 μl) followed by the antibody anti-cAMP-Eu^3+-Cryptate, also in cell lysis buffer (20 μl).
(§2) A relative EC50 value and percent top (Emax) are derived by non-linear regression analysis using the percent maximal response vs. the concentration of peptide added, fitted to a four-parameter logistic equation (Genedata Screener®).
(§3) Means for EC50 are expressed as Geometric means±standard error of the mean (SEM) with the number of replicates (n) indicated in parenthesis. Means for Emax are expressed as the arithmetic mean±standard error. ND signifies that agonist activity was not detected.

hGLP-1-R [6] = target: T1, hGLP-1-R; test: Functional hGLP-1-R assay (cAMP HTRF, HEK-293 clonal cell line); format: cell-based; set-up: expressed in transfected cells; host or cells: HEK-293 clonal cell line over-expressing the receptor; conditions: for Emax: HEK293; for EC50: cAMP, 60 minute incubation, 0.25% FBS, 0.05% BSA, geometric mean, read-out: Human GLP-1-R EC50, nM ± SEM (n)
Procedure: as §1, §2, §3

hGcg-R = hGcg-R (Homo sapiens, UniProt P47871); test: hGcg-R Binding Assay (SPA radioligand competition, 293HEK membranes); conditions: read-out: Ki, nM ± SEM at the hGcg-R
Chain of hGcg-R (P47871 26-477): as above

[7] = 10 mM Tris pH 8.0 + 3 mg/mL m-cresol + 0.02% Tween-20, Tris pH 8 + 3 mg/mL m-cresol + 0.02% Tween-20
[8] = 10 mM Tris pH 8.0 + 3 mg/mL m-cresol + 150 mM NaCl, Tris pH 8 + 3 mg/mL m-cresol + 150 mm NaCl
[9] = 10 mM Tris pH 8.0 + 3 mg/mL m-cresol, Tris pH 8 + 3 mg/mL m-cresol
[10] = PBS pH 7.4, pH 7.4, read-out: solubility in PBS, pH 7.4
[11] = 15 nmol/kg sc every three days for 15 days
[12] = 30 nmol/kg sc every three days for 15 days

Row | Structure (SMILES) | Ki (hGLP-1-R [1]) [nM] | solubility at 1 week [2, 7] [µg/mL] | solubility at 1 week [2, 8] [µg/mL] | solubility at 1 week [2, 9] [µg/mL] | HMW species formation by SEC-HPLC [2] | solubility at 1 week [2, 10] [µg/mL] | visible precipitation or phase separation [2] | Cholesterol (% of vehicle) (DIO mice (C57BL/6) [3]) | FGF-21 (% of vehicle) (DIO mice (C57BL/6) [3]) | PCSK9 (% of vehicle) (DIO mice (C57BL/6) [3]) | 44 hours Glucose AUC (% of Vehicle) (DIO mice (C57BL/6) [4]) | 78 hours Glucose AUC (% of Vehicle) (DIO mice (C57BL/6) [4]) | glucose excursions post an oral glucose challenge (DIO mice (C57BL/6) [4]) | Blood glucose (mg/dL) post-injection, Mean (DIO mice (C57BL/6) [4]; 2 hours post-injection) [mg/dL] | Blood glucose (mg/dL) post-injection, Mean (DIO mice (C57BL/6) [4]; 8 hours post-injection) [mg/dL] | Blood glucose (mg/dL) post-injection, Mean (DIO mice (C57BL/6) [4]; 24 hours post-injection) [mg/dL] | Blood glucose (mg/dL) post-injection, Mean (DIO mice (C57BL/6) [4]; 48 hours post-injection) [mg/dL] | Blood glucose (mg/dL) post-injection, Mean (DIO mice (C57BL/6) [4]; 72 hours post-injection) [mg/dL] | Blood glucose (mg/dL) post-injection, Mean (DIO mice (C57BL/6) [4]; 96 hours post-injection) [mg/dL] | Body Fat (% change vs. vehicle from Day 1) (DIO mice (C57BL/6) [5]; [11]) | further results
1 | CC(C)C[C@H](NC(=O)[C@H](CC(C)C)NC(=O)[C@H](Cc1c[nH]c2ccccc12)NC(=O)[C@H](CCC(=O)O)NC(=O)[C@@H](NC(=O)[C@H](Cc1ccccc1)NC(=O)[C@H](CCC(=O)O)NC(=O)[C@H](CCCCNC(=O)COCCOCCNC(=O)COCCOCCNC(=O)CC[C@H](NC(=O)CC[C@H](NC(=O)CCCCCCCCCCCCCCCCC(=O)O)C(=O)O)C(=O)O)NC(=O)[C@H](C)NC(=O)[C@H](CCCCN)NC(=O)[C@H](CCCCN)NC(=O)[C@H](CCC(=O)O)NC(=O)[C@H](CC(=O)O)NC(=O)[C@H](CC(C)C)NC(=O)[C@H](Cc1ccc(O)cc1)NC(=O)[C@H](CCCCN)NC(=O)[C@H](CO)NC(=O)[C@H](Cc1ccc(O)cc1)NC(=O)[C@H](CC(=O)O)NC(=O)[C@H](CO)NC(=O)[C@@H](NC(=O)[C@H](Cc1ccccc1)NC(=O)[C@@H](NC(=O)CNC(=O)[C@H](CCC(N)=O)NC(=O)C(C)(C)NC(=O)[C@@H](N)Cc1c[nH]cn1)[C@@H](C)O)[C@@H](C)O)C(C)C)C(=O)N[C@@H](CO)C(=O)NCC(=O)NCC(=O)N1CCC[C@H]1C(=O)N[C@@H](CO)C(=O)N[C@@H](CO)C(=O)NCC(N)=O [Compound 3] (H-H[Aib]QGTFTSDYSKYLDEKKAK([AEEA-AEEA-γGlu-γGlu-C18 diacid])EFVEWLLSGGPSSG-NH2; N-terminus assumed) | 8.68 ± 1.6 | 10000 | 10000 | 10000 | No observed HMW species formation by SEC-HPLC; | 10000 (≈ 2160 µM) | No visible precipitation or phase separation observed after 1 week | 55.6* % of vehicle | 1124* % of vehicle | 15.6* % of vehicle | 35* % of Vehicle | 76* % of Vehicle | lower glucose excursions post an oral glucose challenge at 44 hour | 173.4 | 81.4 | 96.6 | 95.8 | 104.7 | 141.1 | −32* % | Body Weight (% change vs. vehicle from Day 1) (DIO mice (C57BL/6) [5]; [11]): −17* %; Body Fat (% change vs. vehicle from Day 1) (DIO mice (C57BL/6) [5]; [12]): −67* %; Body Weight (% change vs. vehicle from Day 1) (DIO mice (C57BL/6) [5]; [12]): −37* %; Emax (Human Gcg-R; HEK293): 104 ± 5%; EC50 (Human Gcg-R): 15.3 ± 2.2 nM; Emax (hGLP-1-R [6]): 105 ± 5%; EC50 (hGLP-1-R [6]): 34.3 ± 9.4 nM; Ki (hGcg-R): 37.3 ± 4.2 nM
2 | CC(C)C[C@H](NC(=O)[C@H](CC(C)C)NC(=O)[C@H](Cc1c[nH]c2ccccc12)NC(=O)[C@H](CCC(=O)O)NC(=O)[C@@H](NC(=O)[C@H](Cc1ccccc1)NC(=O)[C@H](CCC(=O)O)NC(=O)[C@H](CCCCNC(=O)COCCOCCNC(=O)COCCOCCNC(=O)CC[C@H](NC(=O)CCCCCCCCCCCCCCCCCCC(=O)O)C(=O)O)NC(=O)[C@H](C)NC(=O)[C@H](CCCCN)NC(=O)[C@H](CCCCN)NC(=O)[C@H](CCC(=O)O)NC(=O)[C@H](CC(=O)O)NC(=O)[C@H](CC(C)C)NC(=O)[C@H](Cc1ccc(O)cc1)NC(=O)[C@H](CCCCN)NC(=O)[C@H](CO)NC(=O)[C@H](Cc1ccc(O)cc1)NC(=O)[C@H](CC(=O)O)NC(=O)[C@H](CO)NC(=O)[C@@H](NC(=O)[C@H](Cc1ccccc1)NC(=O)[C@@H](NC(=O)CNC(=O)[C@H](CCC(N)=O)NC(=O)C(C)(C)NC(=O)[C@@H](N)Cc1c[nH]cn1)[C@@H](C)O)[C@@H](C)O)C(C)C)C(=O)N[C@@H](CCC(=O)O)C(=O)NCC(=O)NCC(=O)N1CCC[C@H]1C(=O)N[C@@H](CO)C(=O)N[C@@H](CO)C(=O)NCC(N)=O [Compound 2] | 28.6 ± 4.8 | 10000 | 10000 | 10000 | No observed HMW species formation by SEC-HPLC; | 10000 (≈ 2190 µM) | No visible precipitation or phase separation observed after 1 week | 80.6* % of vehicle | 465* % of vehicle | 12.8* % of vehicle | 39* % of Vehicle | 66* % of Vehicle | lower glucose excursions post an oral glucose challenge at both time points | 112.7 | 87.4 | 101.1 | 101.3 | 97.6 | 115.0 | −43* % | Body Weight (% change vs. vehicle from Day 1) (DIO mice (C57BL/6) [5]; [11]): −19* %; Body Fat (% change vs. vehicle from Day 1) (DIO mice (C57BL/6) [5]; [12]): −70* %; Body Weight (% change vs. vehicle from Day 1) (DIO mice (C57BL/6) [5]; [12]): −33* %; EC50 (Human Gcg-R): 26.5 ± 2.2 nM; Emax (hGLP-1-R [6]): 107 ± 7%; EC50 (hGLP-1-R [6]): 83.1 ± 16.8 nM; Ki (hGcg-R): 17.7 ± 5 nM
